Like-named read-outs stand apart in the source and are kept apart here.

The target of assay [1] is T1, human androgen receptor (hAR) (Homo sapiens, UniProt P10275).
T1 construct: expressed in transfected cells
T1 sequence (P10275 1-920): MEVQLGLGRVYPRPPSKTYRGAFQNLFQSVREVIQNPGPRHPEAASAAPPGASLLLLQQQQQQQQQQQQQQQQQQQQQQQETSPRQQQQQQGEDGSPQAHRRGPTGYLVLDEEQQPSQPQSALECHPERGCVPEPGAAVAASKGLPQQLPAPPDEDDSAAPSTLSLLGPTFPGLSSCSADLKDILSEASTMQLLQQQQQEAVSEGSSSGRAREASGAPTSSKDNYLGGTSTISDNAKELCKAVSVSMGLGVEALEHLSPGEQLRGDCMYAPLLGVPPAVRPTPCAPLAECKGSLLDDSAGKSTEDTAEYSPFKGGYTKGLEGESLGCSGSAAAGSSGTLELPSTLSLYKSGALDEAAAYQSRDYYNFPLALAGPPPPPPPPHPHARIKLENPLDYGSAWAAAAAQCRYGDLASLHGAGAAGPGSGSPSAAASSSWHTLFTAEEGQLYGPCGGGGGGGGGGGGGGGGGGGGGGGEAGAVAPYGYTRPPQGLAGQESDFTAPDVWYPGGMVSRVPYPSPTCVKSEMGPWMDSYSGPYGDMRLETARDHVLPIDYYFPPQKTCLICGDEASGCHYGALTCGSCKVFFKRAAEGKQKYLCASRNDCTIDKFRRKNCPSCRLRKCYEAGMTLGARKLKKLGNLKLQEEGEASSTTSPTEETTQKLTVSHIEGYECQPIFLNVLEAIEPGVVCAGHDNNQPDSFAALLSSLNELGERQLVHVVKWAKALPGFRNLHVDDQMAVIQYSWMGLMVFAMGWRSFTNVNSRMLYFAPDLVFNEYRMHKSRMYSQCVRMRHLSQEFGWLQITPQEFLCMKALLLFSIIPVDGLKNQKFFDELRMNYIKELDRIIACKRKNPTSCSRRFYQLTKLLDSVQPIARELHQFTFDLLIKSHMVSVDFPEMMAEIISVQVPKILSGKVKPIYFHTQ
Description: Functional response (transactivation) test in HALP2 cells (HeLa stably expressing hAR and ARE-luciferase reporter). Particulars: for Emax: HeLa, read-out: % effect relative to DHT (100%). The format is cell-based. An excerpt:
This test constitutes a method of identifying pure or partial agonists which mimic the effects of natural hormones, such as DHT (dihydrotestosterone) in the present case or, on the other hand, antagonists which inhibit them.
For this transactivation test, plasmids encoding a reporter gene and the human androgen receptor (hAR) are introduced together by transfection into the HeLa cell line. The reporter plasmid contains luciferase cDNA under the control of the AREs contained in the promoter sequences of the probasin gene (3xpbAREminicoll-luciferase/pGL3-puro). The expression of the reporter gene constitutes an indication of the transcriptional activity of hAR. It also encodes a protein allowing the cells expressing it to resist a treatment with puromycin. The plasmid encoding hAR contains the cDNA of hAR under the control of the Cytomegalovirus (CMV) promoter. It also encodes a protein allowing the cells expressing it to resist a treatment with neomycin. The treatment of cells with increasing amounts of potentially agonistic compounds will increase the expression of the reporter gene. To detect antagonists, on the other hand, increasing doses of test compounds are tested in the presence of […] of DHT. The expression of the reporter gene, which is constant for each dose of DHT, decreases when the concentration of the test compounds increases.
The functional response test is conducted on 96-well plates. The HALP2 cells are seeded (20,000 cells per well) in culture medium (DMEM with phenol red, 1% de Pen-Strep, 1% of non-essential amino acids, 10% of fetal bovine serum, 400 μg/mL Geneticin and 0.150 puromycin) on day 1. After 24 hours incubating at 37° C., 5% CO2, high humidity (day 2) the medium is removed and refreshed with test medium (DMEM without phenol red supplemented, 1% de Pen-Strep, 1% of non-essential amino acids and 5% of desteroidised foetal bovine serum). After another 24 hours incubating at 37° C., 5% CO2, high humidity (day 3), the medium is renewed once more before the phase of stimulation.
The cells are placed in contact with the compounds for 24 hours at 37° C., 5% CO2, high humidity. On day 4 the medium is then removed and the luciferase activity reading reagent is placed in contact with the cells in accordance with the manufacturer's instructions (SteadyLite, Perkin-Elmer). The luminescence produced is detected on an Envision reader (Perkin-Elmer). […]
The determination of the relative agonism/antagonism of a compound is obtained by comparing the maximal activation obtained with said compound and the activation obtained with DHT alone (100%).

Assay [2] relates to castrated immature young rats. In words: Adapted model of Hershberger's test. Particulars: Rattus norvegicus, po, 96 h, ORX control = 0%, SHAM control = 100%, per os daily for 4 days, dose tested 10 mg/kg. The format is in vivo, Sprague Dawley rats. How it is done:
The selective modulating activity of the androgen receptor is tested in a model of castrated immature young rats. This model, which is widely recognised for evaluating the anabolic effects of androgen compounds on the muscles and on the prostate, has been described by Hershberger et al. 1953 Proc. Soc. Expt. Biol. Med. 83:175.
The method is based on the measurement of the well-known effects of androgens on the growth of the muscles and the accessory male sex organs in animals, and also in men. The consequences of castration appear in the form of a rapid involution and atrophy of the prostate and the seminal vesicles and of the anus-lifting muscle (levator ani). This effect may be completely compensated by an exogeneous administration of androgen, in particular of testosterone. The model is thus used to determine the capacity of the tested molecules to maintain the weight of the accessory sex and muscle organs in immature castrated rats, and therefore their androgenic efficacy.
Immature young Sprague Dawley rats (4 to 5 weeks old) weighing approximately 140-160 g (Charles River, Les Oncins, FRANCE) are distributed randomly in various groups and are kept in an environment at 22±2° C. with an alternating day/night cycle of 12 hours and ad libitum access to food and drink.
On day 0 (seven days before commencement of the first treatment) the rats are weighed individually then anaesthetised with an intraperitoneal dose of Ketamine/xylazine (85/15 mg/kg, approximately 2 ml/kg). Each animal is then placed on a sterile field and the abdomen and the scrotum are disinfected with Betadine and 70% alcohol. In the case of the orchidectomised control animals (ORX), the testicles are removed via an incision in the middle of the scrotum. A sterile suture is then made to ligature the supra-testicular portion of the tissue prior to surgical section of each testicle. The groups of animals to be treated by the tested compounds are operated on in an identical manner. In the case of the intact control animals (SHAM), the testicles are similarly extracted and reintroduced delicately to their original location. The site of surgical intervention is then sutured using sterile suture thread, and the site is disinfected again by application of Betadine. Each animal is then kept under a sterile pad until it awoke, before being returned to its cage. The animals are kept in an environment at 22±2° C. with an alternating day/night cycle of 12 hours and ad libitum access to food and drink. The animals are treated with the molecules to be tested from post-surgery day 7 and until day 10 preceding sacrifice (day 11).
The rats are split into groups and treated daily from day 7 to day 10 under the conditions defined below: • 1. SHAM control group: Vehicle (PEG400/DMSO/water; 79/1/20) administered per os. • 2. ORX control group: Vehicle (PEG400/DMSO/water; 79/1/20) administered per os. • 3. Treated ORX group: The tested compounds are administered individually per os in suspension in the vehicle described above, in a dose of 10 mg/kg.
After treatment for 4 successive days, the animals are decapitated using a guillotine. The levator ani and the ventral prostate are removed and weighed individually. For comparing inter-experimental data, the weight of each organ is standardised and expressed in milligrammes per 100 g of the weight of the animal (W). For each organ, the average of the standardised weights of the ORX control group is fixed by definition at 0% and the average of the standardised weights of the SHAM control group is fixed by definition at 100%. The efficacy of each product is expressed as a percentage and calculated using the following formula: (Wtreated−WORX)/(WSHAM−WORX)×100
A subsequent ANOVA test is used for statistical analysis to identify the differences between groups.

Setting [3] is: maximal activation by the compound compared with DHT alone (100%), HALP2 cells.
[4] abbreviates: levator ani weight, read-out: Anabolic activity %.
The mark [5] stands for this setting: ventral prostate weight, read-out: Androgenic activity % (Prostate).
[6] abbreviates: agonism: concentration inducing 50% of the maximum agonistic effect of the tested compound, HALP2 cells, 24 hours, read-out: EC50.

Consider `CCC(O)C1(c2ccccc2)C(=O)N(c2ccc(C#N)c(C(F)(F)F)c2)C(=O)N1C` (single isomer, unassigned) [Example 2, 4-[2,5-Dioxo-4-(1-hydroxypropyl)-3-methyl-4-phenylimidazolidin-1-yl]-2-trifluoromethylbenzonitrile], for which the Emax in assay [1] (setting [3]) was in the range of 0 to 5%.
Turning to `CN1C(=O)N(c2ccc(C#N)c(C(F)(F)F)c2)C(=O)C1(CO)c1cccc(Cl)c1` (stereo not shown) [Example 9], the figures for the response vs control in vivo at 10 mg/kg in assay [2] (setting [4]) and in assay [2] (setting [5]) were 50 to 75% and 0.5 to 25%, respectively. Further, the Emax in assay [1] (setting [3]) fell in the range of 41 to 50%. Further, in assay [1] (setting [6]), the EC50 fell in the range of 0.01 to 10 nM.
As for `CN1C(=O)N(c2ccc(C#N)c(C(F)(F)F)c2)C(=O)C1(CO)c1ccc(C#N)cc1` (stereo not shown) [Example 13, 4-[4-(4-Cyanophenyl)-2,5-dioxo-4-hydroxymethyl-3-methylimidazolidin-1-yl)-2-trifluoromethylbenzonitrile], the response vs control in vivo at 10 mg/kg in assay [2] (setting [4]) and in assay [2] (setting [5]) was 0.5 to 25% each time. Moreover, in assay [1] (setting [3]), the Emax lay in the range of 0 to 5%.
As for `CN1C(=O)N(c2ccc(C#N)c(C(F)(F)F)c2)C(=O)C1(CO)c1cccc(C#N)c1` (stereo not shown) [Example 14, 4-[4-(3-Cyanophenyl)-2,5-dioxo-4-hydroxymethyl-3-methylimidazolidin-1-yl)-2-trifluoromethylbenzonitrile], the response vs control in vivo at 10 mg/kg lay in the range of 75 to 100% in assay [2] (setting [4]) and 25 to 50% in assay [2] (setting [5]). Besides, in assay [1] (setting [3]), the Emax is 21 to 40%. The EC50 in assay [1] (setting [6]) is 101 to 500 nM.
Consider `CN1C(=O)N(c2ccc(C#N)c(C(F)(F)F)c2)C(=O)C1(CO)c1cccc(C(F)(F)F)c1` (stereo not shown) [Example 15, 4-[2,5-Dioxo-4-hydroxymethyl-3-methyl-4-(3-trifluoromethylphenyl)imidazolidin-1-yl)-2-trifluoromethylbenzonitrile], for which the figures for the response vs control in vivo at 10 mg/kg in assay [2] (setting [4]) and in assay [2] (setting [5]) were 25 to 50% and 0%, respectively. Further, the Emax in assay [1] (setting [3]) fell in the range of 21 to 40%. Further, the EC50 in assay [1] (setting [6]) lay in the range of 101 to 500 nM.
On the same counts, the results for `CN1C(=O)N(c2ccc(Cl)c(Cl)c2)C(=O)C1(CO)c1ccccc1` (stereo not shown) [Example 16, 1-(3,4-Dichlorophenyl)-4-hydroxymethyl-3-methyl-4-phenylimidazolidine-2,5-dione] are 75 to 100%, 0.5 to 25%, 6 to 20% and 101 to 500 nM.
The corresponding values for `CC(C)N1C(=O)N(c2ccc(C#N)c(C(F)(F)F)c2)C(=O)C1(CO)c1ccccc1` (stereo not shown) [Example 17, 4-[2,5-Dioxo-4-(hydroxymethyl)-3-(1-methylethyl)-4-phenylimidazolidin-1-yl]-2-trifluoromethylbenzonitrile] are 75 to 100%, 50 to 75%, 41 to 50% and 101 to 500 nM.
For `N#Cc1ccc(N2C(=O)NC(CO)(c3ccccc3)C2=O)cc1C(F)(F)F` (stereo not shown) [Example 20, 4-[2,5-Dioxo-4-hydroxymethyl-4-phenylimidazolidin-1-yl]-2-trifluoromethylbenzonitrile], the “% effect relative to DHT (100%)” value in assay [1] (setting [3]) is on record as “§ (0-5%)”.
Regarding `CN1C(=O)N(c2ccc(C#N)c(C(F)(F)F)c2)C(=O)C1(COP(=O)(O)O)c1ccccc1` (stereo not shown) [Example 24, [1-(4-Cyano-3-trifluoromethylphenyl)-2,5-dioxo-3-methyl-4-phenylimidazolidin-4-yl]methyl dihydrogen phosphate], the Emax in assay [1] (setting [3]) lay within 21 to 40%. Also, the EC50 in assay [1] (setting [6]) fell in the range of 0.01 to 10 nM.
For `CC(C)[C@H](N)C(=O)OCC1(c2ccccc2)C(=O)N(c2ccc(C#N)c(C(F)(F)F)c2)C(=O)N1C` (stereo partly drawn) [Example 25, (2S)-1-[1-(4-Cyano-3-trifluoromethylphenyl)-2,5-dioxo-3-methyl-4-phenylimidazolidin-4-yl]methoxy-3-methyl-1-oxobutan-2-aminium chloride], in assay [1], the EC50 fell in the range of 11 to 100 nM and the Emax was in the range of 21 to 40%.
On the same counts, the results for `CN1C(=O)N(c2ccc(C#N)c(C(F)(F)F)c2)C(=O)C1(COC(=O)CCC(=O)O)c1ccccc1` (stereo not shown) [Example 26, 4-[1-(4-Cyano-3-trifluoromethylphenyl)-2,5-dioxo-3-methyl-4-phenylimidazolidin-4-yl]methoxy-4-oxobutanoic acid] are 11 to 100 nM and 21 to 40%.

(Values after patent publication US8383608B2, “Imidazolidine compounds as androgen receptor modulators” (Dart Therapeutics LLC, priority 2008, dated 2013).)
